Among the test systems are A498 renal; CCRF-CEM leukemia; DU-145 prostate; HCT-15 colon; K-562 leukemia; LOX IMVI melanoma; SF-295 CNS; SK-MEL-5 melanoma; SNB-19 CNS; UACC-257 melanoma.
Common to all, as to test: NCI tumour cell line growth inhibition, 48 h

Each structure is given as a SMILES string.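 Dose response: 5 concentrations. Exposure: 48 h. Format: 96-well plates. Endpoint: linear interpolation; highest concentration if not reached. Definition used: TGI = concentration required for complete inhibition of growth.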

Consider `Nc1nn2c(C(Br)Br)cc(C(Br)Br)nc2c1[N+](=O)[O-]`, for which the TGI in the assay with A498 renal amounted to 4.72 µM; in the assay on CCRF-CEM leukemia, 0.51 µM; in the assay on DU-145 prostate, 3.46 µM; in the assay on HCT-15 colon, 2.34 µM; in the assay with K-562 leukemia, 0.857 µM; in the assay on LOX IMVI melanoma, 0.799 µM. The TGI in the assay with SF-295 CNS worked out at 4.46 µM; in the assay on SK-MEL-5 melanoma, 3.06 µM; in the assay with SNB-19 CNS, 3.05 µM; with UACC-257 melanoma, 3.11 µM.

Take `CC(C)(C)NC(=O)[C@H]1CC[C@H]2[C@@H]3CC=C4NC(=O)CC[C@]4(C)[C@H]3CC[C@]12C`: the TGI in the assay with A498 renal, with CCRF-CEM leukemia, in the assay with DU-145 prostate, in the assay with HCT-15 colon, with K-562 leukemia and in the assay with LOX IMVI melanoma was greater than 100 µM each time. The TGI with SF-295 CNS, with SK-MEL-5 melanoma, in the assay on SNB-19 CNS and in the assay on UACC-257 melanoma was greater than 100 µM throughout.

In the case of `O=C1/C(=C/c2ccccc2S)N=C(c2ccccc2)N1c1nc2ccc(Sc3ccccc3)cc2[nH]1`, the TGI in the assay with A498 renal, in the assay on CCRF-CEM leukemia, in the assay on DU-145 prostate, with HCT-15 colon, in the assay on K-562 leukemia and in the assay with LOX IMVI melanoma was greater than 100 µM in each case. In addition, the TGI is 72.5 µM in the assay with SF-295 CNS, 38.6 µM in the assay on SK-MEL-5 melanoma, greater than 100 µM in the assay on SNB-19 CNS and 69.2 µM in the assay with UACC-257 melanoma.

With `CN(C)c1ccc(-c2c(C#N)c(S)n(NS(=O)(=O)c3ccccc3)c(=O)c2C#N)cc1`, the TGI in the assay on A498 renal was greater than 100 µM; in the assay on CCRF-CEM leukemia it was greater than 100 µM; in the assay with DU-145 prostate, greater than 100 µM; with HCT-15 colon, 57.7 µM; with K-562 leukemia it was greater than 100 µM; in the assay on LOX IMVI melanoma, greater than 100 µM. The TGI in the assay with SF-295 CNS is greater than 100 µM; in the assay on SK-MEL-5 melanoma, 72.2 µM; in the assay with SNB-19 CNS, greater than 100 µM; in the assay on UACC-257 melanoma it was greater than 100 µM.

Source of the values: PubChem BioAssay (NCI).
